According to patent publication US9629823B2, “Composition for promoting collagen production, for promoting elastin production and/or for promoting keratinocyte migration and usage therefor” (PUBLIC UNIVERSITY CORPORATION OSAKA CITY UNIVERSITY, priority 2013, dated 2017):

Tests used:
[1] = test system: type I collagen in CCD-10595K cells; experiment: Collagen production by immunohistochemistry (anti-type I collagen) in fibroblasts; format: cell-based, human; conditions: sesaminol 15 or 30 μg/ml, 24 hours
Protocol: Cells of human normal skin-derived fibroblast CCD-10595K strain (purchased from DS Pharma Biomedical Co., Ltd.) were inoculated at a density of 3.0×10^4 cells/ml in a plastic dish having a diameter of 35 mm and cultured in a 5% CO2 incubator at 37° C. The medium used was the same medium as in Example 1. After 1 or 2 days, the medium was replaced with the medium containing the sesaminol solution so as to contain sesaminol at a final concentration of 15 or 30 μg/ml and the cells were incubated for 24 hours in a 5% CO2 incubator at 37° C. As a control, incubation was carried out using the medium without sesaminol solution.
After the incubation, cells were washed three times with PBS. Cells were then fixed in 4% paraformaldehyde and stored overnight at 4° C. The fixed cells were treated with 0.1% Triton®-X100 diluted in PBS for 5 minutes and washed with PBS for 5 minutes. The treated cells were blocked in 3% H2O2 and washed with PBS for 5 minutes. The cells were further blocked in 10% normal goat serum and washed with PBS for 5 minutes. A rabbit anti-type I collagen antibody (LSL) diluted 200-fold in PBS was added to the cells on a slide glass which were then incubated for 1 hour and washed with PBS for 5 minutes. […] The prepared slide was analysed on OLYMPUS IX-70 and images of stained cells were obtained.

[2] = test system: human normal skin-derived keratinocyte HaCaT cells; experiment: Scratch (wound healing) assay of keratinocyte migration; format: cell-based; conditions: 24 hours, control = 100
Protocol: Cells of human normal skin-derived keratinocyte HaCaT cells were inoculated at a density of 5.0×10^5 cells/dish in a plastic dish having a diameter of 35 mm with a mark on the bottom and cultured until they reached confluence in a 5% CO2 incubator at 37° C. The culture medium used was Dulbecco's modified Eagle's medium (DMEM: Nissui Pharmaceutical Co., Ltd.) containing 10% fetal bovine serum (FBS: Nichirei Biosciences, Inc.), penicillin (50 units/ml, Meiji Co., Ltd.) and streptomycin ([…], Meiji Co., Ltd.). The medium was replaced every two days.
After culturing the cells until they reached confluence, cells in the dish were scraped with a chip and a linear wound pattern was formed therewith. Immediately thereafter, the wound pattern was analysed under an inverted microscope (OLYMPUS IX-70: Olympus Corporation) and photographed. […] The wound pattern was then analysed with OLYMPUS IX-70 and photographed. […]
Based on the obtained photographic images, the width of wound patterns in the samples was measured. […] Based on the measurement results, the repair rate in the region of the wound by sesaminol was calculated. The repair rates for the samples calculated are as follows with the rate for the control being 100.

[3] = test system: various cell lines used in Examples; experiment: Toxicity and viability check on the cell lines used in Examples; format: cell-based; conditions: sesaminol solution (3.0 mg/ml in DMSO)
Protocol: The highly concentrated sesaminol solution was dissolved in dimethyl sulphoxide (DMSO) to prepare a sesaminol solution (3.0 mg/ml) to be used in Examples.

[4] = test system: elastin in CCD-10595K cells; experiment: Elastin production by western blot analysis in fibroblasts; format: cell-based, human; conditions: sesaminol 15 or 30 μg/ml, 24 hours
Protocol: (§1) Cells of human normal skin-derived fibroblast CCD-10595K cells (purchased from DS Pharma Biomedical Co., Ltd.) were inoculated in a plastic dish having a diameter of 35 mm and cultured until they reached confluence in a 5% CO2 incubator at 37° C. Thereafter, the medium was replaced with the medium containing the sesaminol solution so as to contain sesaminol at a final concentration of 15 or 30 μg/ml and the cells were incubated for 24 hours in a 5% CO2 incubator at 37° C. The medium used was the same medium as in Example 1. The medium was replaced every two days until the cells reached confluence. As a control, incubation was carried out using the medium without sesaminol solution.
(§2) After the incubation, cells were washed twice with PBS and collected into a 1.5-ml tube using a cell scraper. […] An aliquot of the collected supernatant was subjected to protein quantification using Serva Blue G (Serva Electrophoresis GmbH) based on the absorbance at 595 nm in order to calculate the amount of sample applied to electrophoresis.
(§3) Equal volumes of the supernatant containing cell lysate and a sample buffer were mixed and heated at 90° C. for 5 minutes to prepare a sample for electrophoresis. […] The ratio of the band intensity of type I collagen or elastin relative to the band intensity of β-actin was calculated for the samples.

[5] = test system: type I collagen in CCD-10595K cells; experiment: Collagen production by western blot analysis in fibroblasts; format: cell-based, human; conditions: sesaminol 15 or 30 μg/ml, 24 hours
Protocol: as §1, §2, §3

Oc1cc2c(cc1C1OCC3C(c4ccc5c(c4)OCO5)OCC13)OCO2 (stereo not shown) [sesaminol]
type I collagen staining intensity vs control (FIG. 2) [1]: stained more intensely than the control | repair rate in the region of the wound (control being 100) ([2]; sesaminol 15 μg/ml): 121.7±25.6 | repair rate in the region of the wound (control being 100) ([2]; sesaminol 30 μg/ml): 139.1±20.6 | effect on cell viability [3]: did not affect viability | toxicity to cell lines [3]: not toxic | expression level of elastin (band intensity ratio to β-actin, control = 1; FIG. 4) [4]: increased | expression level of collagen (band intensity ratio to β-actin, control = 1; FIG. 3) [5]: increased
